The source made the active and inactive calls. The calls are words filed in the database; no cut-off is given here.
Key:
[1] = biological target: T1, Fatty-acid amide hydrolase 1 (Homo sapiens, UniProt O00519); experiment: Inhibition of human FAAH
T1 sequence (O00519 whole entry): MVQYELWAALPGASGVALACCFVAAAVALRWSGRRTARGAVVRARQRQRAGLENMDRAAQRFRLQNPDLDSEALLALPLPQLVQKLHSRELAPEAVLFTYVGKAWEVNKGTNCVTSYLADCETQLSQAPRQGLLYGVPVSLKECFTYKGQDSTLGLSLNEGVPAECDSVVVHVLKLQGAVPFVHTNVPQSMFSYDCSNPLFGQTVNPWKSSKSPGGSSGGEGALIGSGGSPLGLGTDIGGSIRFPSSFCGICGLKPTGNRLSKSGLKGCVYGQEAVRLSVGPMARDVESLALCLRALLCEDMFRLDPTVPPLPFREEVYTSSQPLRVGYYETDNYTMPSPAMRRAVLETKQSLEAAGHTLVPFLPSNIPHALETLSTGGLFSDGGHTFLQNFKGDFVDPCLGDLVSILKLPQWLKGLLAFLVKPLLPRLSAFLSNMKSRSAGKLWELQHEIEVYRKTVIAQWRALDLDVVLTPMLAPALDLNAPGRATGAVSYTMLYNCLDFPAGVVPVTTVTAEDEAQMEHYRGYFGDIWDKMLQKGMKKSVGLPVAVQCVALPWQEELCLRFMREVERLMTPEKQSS

[2] = biological target: T2, Fatty-acid amide hydrolase 1 (Rattus norvegicus, UniProt P97612); experiment: Inhibition of rat FAAH
T2 sequence (P97612 whole entry): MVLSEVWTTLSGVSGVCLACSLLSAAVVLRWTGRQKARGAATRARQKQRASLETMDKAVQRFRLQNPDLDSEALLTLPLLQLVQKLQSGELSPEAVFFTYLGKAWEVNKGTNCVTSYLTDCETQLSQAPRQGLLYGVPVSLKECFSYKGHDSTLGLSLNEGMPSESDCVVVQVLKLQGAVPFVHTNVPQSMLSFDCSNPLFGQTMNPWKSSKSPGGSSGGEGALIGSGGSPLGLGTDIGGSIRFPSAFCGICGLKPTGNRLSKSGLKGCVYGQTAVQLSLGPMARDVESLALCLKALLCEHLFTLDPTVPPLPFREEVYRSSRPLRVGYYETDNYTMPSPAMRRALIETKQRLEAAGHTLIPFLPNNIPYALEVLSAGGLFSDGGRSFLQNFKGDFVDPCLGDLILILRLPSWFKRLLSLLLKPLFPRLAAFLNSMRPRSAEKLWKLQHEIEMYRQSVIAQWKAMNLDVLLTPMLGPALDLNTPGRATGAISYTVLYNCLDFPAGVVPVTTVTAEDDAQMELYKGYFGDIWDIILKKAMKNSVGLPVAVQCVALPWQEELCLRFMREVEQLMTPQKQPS

[3] = biological target: T3, Monoglyceride lipase (Homo sapiens, UniProt Q99685); experiment: Inhibition of human MGL
T3 sequence (Q99685 whole entry): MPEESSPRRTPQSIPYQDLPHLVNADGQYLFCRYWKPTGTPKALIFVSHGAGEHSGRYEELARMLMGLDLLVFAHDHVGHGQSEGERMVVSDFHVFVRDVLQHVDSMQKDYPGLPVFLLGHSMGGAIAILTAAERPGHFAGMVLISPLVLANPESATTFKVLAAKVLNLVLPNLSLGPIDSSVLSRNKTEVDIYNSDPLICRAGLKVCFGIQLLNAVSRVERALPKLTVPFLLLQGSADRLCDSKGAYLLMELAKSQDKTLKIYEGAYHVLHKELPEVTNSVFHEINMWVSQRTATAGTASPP

[4] = biological target: T4, N-acylethanolamine-hydrolyzing acid amidase (Homo sapiens, UniProt Q02083); experiment: Inhibition of human NAAA
T4 sequence (Q02083 whole entry): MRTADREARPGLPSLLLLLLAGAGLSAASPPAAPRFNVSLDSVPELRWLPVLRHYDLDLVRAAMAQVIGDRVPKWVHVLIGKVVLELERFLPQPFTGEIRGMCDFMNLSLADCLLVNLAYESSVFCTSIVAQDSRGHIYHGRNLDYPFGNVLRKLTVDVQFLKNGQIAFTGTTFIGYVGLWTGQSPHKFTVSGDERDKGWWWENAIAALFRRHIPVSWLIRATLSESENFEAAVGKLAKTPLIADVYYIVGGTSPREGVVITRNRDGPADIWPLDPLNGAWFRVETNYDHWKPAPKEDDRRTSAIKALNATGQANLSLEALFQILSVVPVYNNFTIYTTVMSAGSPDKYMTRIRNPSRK

[5] = biological target: T5, Cannabinoid receptor 1 (Rattus norvegicus, UniProt P20272); experiment: Displacement of [3H]CP-55,940 from CB1 receptor in rat brain homogenates in presence of phenylmethanesulfonyl fluoride; assay type: tissue-based
[6] = biological target: T5, Cannabinoid receptor 1; experiment: Displacement of [3H]CP-55,940 from CB1 receptor in rat brain homogenates in absence of phenylmethanesulfonyl fluoride; assay type: tissue-based
[7] = biological target: Cannabinoid receptor 2 (Mus musculus, UniProt P47936); experiment: Displacement of [3H]CP-55,940 from mouse CB2 receptor expressed in HEK293 cells; assay type: cell-based
[8] = biological target: Cannabinoid receptor 2 (Homo sapiens, UniProt P34972); experiment: Displacement of [3H]CP-55,940 from human CB2 receptor expressed in HEK293 cells; assay type: cell-based
[9] = biological target: T6, Prostaglandin E2 receptor EP1 subtype (Homo sapiens) (UniProt P34995); experiment: Activity at recombinant EP1 receptor (unknown origin) expressed in CHO cells co-expressing Gq protein at 100 nM by electrical cell substrate impedance sensing system; assay type: cell-based
T6 sequence (whole entry): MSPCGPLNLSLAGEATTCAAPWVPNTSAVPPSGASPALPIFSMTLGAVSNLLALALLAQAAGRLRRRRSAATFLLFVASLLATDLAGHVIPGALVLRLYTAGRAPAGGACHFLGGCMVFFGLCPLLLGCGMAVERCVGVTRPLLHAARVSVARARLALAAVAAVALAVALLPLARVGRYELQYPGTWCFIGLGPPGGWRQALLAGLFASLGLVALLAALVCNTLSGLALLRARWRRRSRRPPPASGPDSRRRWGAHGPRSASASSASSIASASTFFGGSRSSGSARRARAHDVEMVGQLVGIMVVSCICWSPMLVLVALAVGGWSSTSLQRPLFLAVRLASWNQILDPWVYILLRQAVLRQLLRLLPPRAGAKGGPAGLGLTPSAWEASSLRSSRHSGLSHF

[10] = biological target: T7, Prostaglandin E2 receptor EP3 subtype (Homo sapiens) (UniProt P43115); experiment: Activity at recombinant EP3 receptor (unknown origin) expressed in CHO cells co-expressing Gi protein at 100 nM by electrical cell substrate impedance sensing system; assay type: cell-based
T7 sequence (whole entry): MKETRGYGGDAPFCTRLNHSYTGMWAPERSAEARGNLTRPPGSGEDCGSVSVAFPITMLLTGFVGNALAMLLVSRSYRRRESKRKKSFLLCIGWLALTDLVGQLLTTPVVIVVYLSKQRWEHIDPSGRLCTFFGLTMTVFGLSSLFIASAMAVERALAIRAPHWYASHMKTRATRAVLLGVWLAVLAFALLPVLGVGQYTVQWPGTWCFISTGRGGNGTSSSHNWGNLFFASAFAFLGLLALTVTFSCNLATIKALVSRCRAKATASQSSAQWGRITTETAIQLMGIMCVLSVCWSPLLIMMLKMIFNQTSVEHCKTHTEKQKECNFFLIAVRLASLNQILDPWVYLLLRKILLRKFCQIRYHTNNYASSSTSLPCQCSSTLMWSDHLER

[11] = biological target: Prostaglandin E2 receptor EP4 subtype (Homo sapiens) (UniProt P35408); experiment: Activity at recombinant EP4 receptor (unknown origin) expressed in CHO cells co-expressing Gs protein at 100 nM by electrical cell substrate impedance sensing system; assay type: cell-based
Prostaglandin E2 receptor EP4 subtype (Homo sapiens), sequence (P35408 whole entry): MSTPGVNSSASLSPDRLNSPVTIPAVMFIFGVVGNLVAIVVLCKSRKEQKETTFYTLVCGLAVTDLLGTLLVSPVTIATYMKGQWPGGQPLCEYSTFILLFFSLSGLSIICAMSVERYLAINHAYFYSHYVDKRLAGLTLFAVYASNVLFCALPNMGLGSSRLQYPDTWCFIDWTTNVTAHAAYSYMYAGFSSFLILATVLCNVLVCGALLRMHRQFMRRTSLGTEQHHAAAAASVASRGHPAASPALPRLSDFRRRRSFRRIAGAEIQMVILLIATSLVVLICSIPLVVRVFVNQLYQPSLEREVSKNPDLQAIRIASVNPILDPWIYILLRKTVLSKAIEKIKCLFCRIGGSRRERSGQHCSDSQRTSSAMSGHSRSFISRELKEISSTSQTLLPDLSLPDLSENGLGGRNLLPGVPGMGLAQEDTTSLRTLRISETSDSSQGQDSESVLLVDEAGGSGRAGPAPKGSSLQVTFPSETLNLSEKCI

Cannabinoid receptor 2 (Homo sapiens, UniProt P34972), sequence (P34972 whole entry): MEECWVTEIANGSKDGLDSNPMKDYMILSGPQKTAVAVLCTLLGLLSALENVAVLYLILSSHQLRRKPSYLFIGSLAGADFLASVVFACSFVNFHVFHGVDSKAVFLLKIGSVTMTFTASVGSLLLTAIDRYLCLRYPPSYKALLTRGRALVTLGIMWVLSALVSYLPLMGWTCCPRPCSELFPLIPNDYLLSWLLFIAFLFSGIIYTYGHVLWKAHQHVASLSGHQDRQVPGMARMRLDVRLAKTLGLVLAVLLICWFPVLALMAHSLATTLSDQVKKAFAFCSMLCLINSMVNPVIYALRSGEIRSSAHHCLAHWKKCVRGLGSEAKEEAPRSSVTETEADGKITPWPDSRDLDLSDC
Cannabinoid receptor 2 (Mus musculus, UniProt P47936), sequence (P47936 whole entry): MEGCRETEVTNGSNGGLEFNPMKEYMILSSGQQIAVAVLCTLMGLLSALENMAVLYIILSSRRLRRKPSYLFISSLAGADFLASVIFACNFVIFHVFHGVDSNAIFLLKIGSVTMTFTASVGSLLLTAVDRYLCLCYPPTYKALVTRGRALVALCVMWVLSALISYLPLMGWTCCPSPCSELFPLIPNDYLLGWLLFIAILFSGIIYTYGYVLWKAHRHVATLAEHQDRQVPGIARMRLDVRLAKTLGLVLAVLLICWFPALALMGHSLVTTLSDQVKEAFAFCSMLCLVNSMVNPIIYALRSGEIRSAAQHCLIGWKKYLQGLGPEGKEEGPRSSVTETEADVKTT
T5 sequence (P20272 whole entry): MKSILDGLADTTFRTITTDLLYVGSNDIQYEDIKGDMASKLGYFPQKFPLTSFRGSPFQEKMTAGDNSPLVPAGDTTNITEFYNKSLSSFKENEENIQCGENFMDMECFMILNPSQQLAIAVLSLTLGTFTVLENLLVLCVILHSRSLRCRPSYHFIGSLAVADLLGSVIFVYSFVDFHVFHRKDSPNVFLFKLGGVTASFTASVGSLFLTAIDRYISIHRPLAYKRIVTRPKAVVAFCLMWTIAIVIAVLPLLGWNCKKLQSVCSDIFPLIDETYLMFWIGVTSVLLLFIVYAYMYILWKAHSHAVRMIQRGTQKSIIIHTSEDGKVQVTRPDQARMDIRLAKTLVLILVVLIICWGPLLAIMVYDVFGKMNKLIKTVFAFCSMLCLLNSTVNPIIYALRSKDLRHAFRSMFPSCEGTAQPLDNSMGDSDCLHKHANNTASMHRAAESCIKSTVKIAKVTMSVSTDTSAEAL

IC50 [1] [nM]	IC50 [2] [nM]	IC50 [3] [nM]	IC50 [4] [nM]	Ki [5] [nM]	Ki [6] [nM]	Ki [7] [nM]	Ki [8] [nM]	Activity [9]	Activity [10]	Activity [11]	SMILES
> 100000	> 100000	> 100000	> 100000	> 1000	> 1000	> 1000	> 1000	–	–	–	O=C(CCC/C=C\C[C@H]1C(=O)C[C@@H](O)[C@@H]1/C=C/[C@@H](O)CCc1ccccc1)NCCCO
> 100000	> 100000	100000	> 100000	> 1000	> 1000	> 1000	> 1000	inactive	inactive	inactive	O=C(CCC/C=C\C[C@H]1C(=O)C[C@@H](O)[C@@H]1/C=C/[C@@H](O)CCc1ccccc1)NCCO
> 100000	> 100000	> 100000	> 100000	740	740	> 1000	> 1000	–	–	–	O=C(CCC/C=C\C[C@H]1C(=O)C[C@@H](O)[C@@H]1/C=C/[C@H](O)CCc1ccccc1)NCCO
> 100000	> 100000	> 100000	> 100000	950	> 1000	> 1000	> 1000	–	–	–	C[C@@H](CO)NC(=O)CCC/C=C\C[C@H]1C(=O)C[C@@H](O)[C@@H]1/C=C/[C@@H](O)CCc1ccccc1

The remaining lines, values behind:

SMILES	IC50 [1] [nM]	IC50 [2] [nM]	IC50 [3] [nM]	IC50 [4] [nM]	Ki [5] [nM]	Ki [6] [nM]	Ki [7] [nM]	Ki [8] [nM]	Activity [9]	Activity [10]	Activity [11]
CCCCC[C@H](O)/C=C/[C@H]1[C@H](O)CC(=O)[C@@H]1C/C=C\CCCC(=O)NCCO	–	–	–	–	–	–	–	–	inactive	inactive	inactive
C[C@H](CO)NC(=O)CCC/C=C\C[C@H]1C(=O)C[C@@H](O)[C@@H]1/C=C/[C@@H](O)CCc1ccccc1	> 100000	> 100000	> 100000	> 100000	730	770	> 1000	> 1000	–	–	–
CCCCC[C@H](O)/C=C/[C@H]1[C@H](O)CC(=O)[C@@H]1C/C=C\CCCC(=O)O	–	–	–	–	–	–	–	–	Active	Active	Active
O=C(CCC/C=C\C[C@H]1C(=O)C[C@@H](O)[C@@H]1/C=C/[C@@H](O)CCc1ccc(I)cc1)NCCO	> 100000	> 100000	> 100000	> 100000	620	830	> 1000	> 1000	–	–	–
